One may read the IC50 as the concentration that gives 50% inhibition. Low values mean greater potency in that assay, high ones weaker potency in that assay.

For data set [1], the target named is T1, Mps-1 kinase (Homo sapiens, UniProt P33981).
T1 sequence (P33981 1-857): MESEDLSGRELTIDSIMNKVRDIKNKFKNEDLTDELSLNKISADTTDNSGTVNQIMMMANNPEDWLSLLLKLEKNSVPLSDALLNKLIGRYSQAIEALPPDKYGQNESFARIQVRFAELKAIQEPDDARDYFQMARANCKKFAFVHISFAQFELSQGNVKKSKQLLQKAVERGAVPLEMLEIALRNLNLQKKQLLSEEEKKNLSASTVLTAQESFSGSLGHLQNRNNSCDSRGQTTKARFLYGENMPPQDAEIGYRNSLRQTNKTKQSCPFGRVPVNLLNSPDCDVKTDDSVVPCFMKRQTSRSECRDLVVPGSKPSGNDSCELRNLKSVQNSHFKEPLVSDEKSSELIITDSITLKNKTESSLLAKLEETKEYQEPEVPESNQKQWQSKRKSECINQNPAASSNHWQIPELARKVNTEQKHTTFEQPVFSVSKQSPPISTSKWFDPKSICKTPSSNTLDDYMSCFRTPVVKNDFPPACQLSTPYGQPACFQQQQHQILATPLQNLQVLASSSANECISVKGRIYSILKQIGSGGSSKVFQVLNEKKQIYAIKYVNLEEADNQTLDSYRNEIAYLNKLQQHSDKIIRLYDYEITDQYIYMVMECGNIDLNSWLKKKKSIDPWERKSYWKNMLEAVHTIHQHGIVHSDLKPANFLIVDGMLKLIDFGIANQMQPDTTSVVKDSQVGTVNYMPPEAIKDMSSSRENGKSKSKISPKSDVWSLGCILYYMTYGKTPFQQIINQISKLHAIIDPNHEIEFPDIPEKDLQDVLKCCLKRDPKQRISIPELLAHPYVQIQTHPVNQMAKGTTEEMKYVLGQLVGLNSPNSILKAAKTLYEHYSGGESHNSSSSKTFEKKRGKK
Put plainly: Mps-1 kinase assay with 10 μM ATP (TR-FRET). On the technique in general: Time-resolved FRET reads energy transfer from a long-lived donor to a nearby acceptor.

A short description of data set [2]: Hydrolytic stability assay at pH 2. The format is physicochemical. Particulars: buffer pH 2, 37° C. On the procedure: The hydrolytic stability assay investigates the stability of a compound in an aqueous buffer system. Standard solution stability assay is run in 0.05 M Phosphate buffer at pH 7.4 (pH of blood plasma) at 37° C. As compounds in the GI tract are exposed to a wide variety of pHs any relevant pH (as pH 2 to simulate the acidic condition of the GI tract in the following experiment) can be chosen. Compounds are incubated in relevant solution at 37° C. and analyzed by HPLC immediately after incubation and after 1, 2 and 24 hrs. Degradation rate (decay in %) is calculated by relating peak areas after 1, 2 and 24 hrs to the time zero injection.
Compound is available as 10 mM in DMSO (solution 1). 2.5 μL of solution 1 is dissolved in 1 mL acetonitrile leading to solution 2. Poorly soluble compounds may demand another dilution step of solution 2 (1:5 and 1:10 respectively) in Acetonitrile). Solution 2 is incubated at 37° C. in a tempered HPLC autosampler. 1 mL buffer pH 2 is transferred into an HPLC vial. 100 μL of solution 2 is added to the buffer pH 2 solution and mixed thoroughly. Immediately after mixing the combined solution is injected into the HPLC to give the time zero injection. Injections are repeated after 1, 2 and 24 hrs.
The degradation rate (decay in %) is calculated using HPLC software Millennium and Excel respectively.

The target in data set [3] is T1, Mps-1 kinase. Put plainly: Mps-1 kinase assay with 2 mM ATP (TR-FRET).
The mark [4] stands for this setting: comparison compounds specified in WO2011/063908.

As for `COc1cc(C(=O)NCCO)ccc1Nc1nc2ccc(-c3ccc(C(=O)NCc4ccc(F)cc4)cc3)cn2n1` [Example 02.1, 4-[(6-{4-[(4-fluorobenzyl)carbamoyl]phenyl}[1,2,4]triazolo[1,5-α]pyridin-2-yl)amino]-N-(2-hydroxyethyl)-3-methoxybenzamide], the IC50 in data set [1] was not above 1 nM; in data set [3] it was 1.1 nM. Also, the “Hydrolysis at pH 2; Decay in % after 24 h” value (“Hydrolysis … in % after 24 h” below) in data set [2] (compounds of the invention) is on record as less than 10%.
For `CNCCN(C)C(=O)c1ccc(Nc2nc3ccc(-c4ccc(C(=O)NCc5ccc(F)cc5)cc4)cn3n2)c(OC)c1` [Example 02.11, 4-[(6-{4-[(4-fluorobenzyl)carbamoyl]phenyl}[1,2,4]triazolo[1,5-α]pyridin-2-yl)amino]-3-methoxy-N-methyl-N-[2-(methylamino)ethyl]benzamide] the same measures were not above 1 nM, not above 1 nM and less than 10%.
For `CCOc1cc(C(=O)N(CC)CCOC)ccc1Nc1nc2ccc(-c3ccc(NC(=O)Cc4ccc(F)cc4)cc3)cn2n1` [Example 01.18, 3-ethoxy-N-ethyl-4-{[6-(4-{[(4-fluorophenyl)acetyl]amino}phenyl)[1,2,4]-triazolo[1,5-α]pyridin-2-yl]amino}-N-(2-methoxyethyl)benzamide] the same measures were not above 1 nM, not above 1 nM and less than 10%.
Taken in the same sequence, the figures for `CCN(CC)C(=O)c1ccc(Nc2nc3ccc(-c4ccc(NC(=O)Cc5ccc(F)cc5)cc4)cn3n2)c(OC(C)C)c1` [Example 01.25, N,N-diethyl-4-{[6-(4-{[(4-fluorophenyl)acetyl]amino}phenyl)[1,2,4]triazolo-[1,5-α]pyridin-2-yl]amino}-3-isopropoxybenzamide] were not above 1 nM, 1.3 nM and less than 10%.
In the case of `COc1cc(C(=O)N(C)CCN(C)C(C)=O)ccc1Nc1nc2ccc(-c3ccc(C(=O)NCc4ccc(F)cc4)cc3)cn2n1` [Example 02.9, N-{2-[acetyl(methyl)amino]ethyl}-4-[(6-{4-[(4-fluorobenzyl)carbamoyl]-phenyl}[1,2,4]triazolo[1,5-α]pyridin-2-yl)amino]-3-methoxy-N-methylbenzamide], the IC50 in data set [1] is not above 1 nM; in data set [3], 2.2 nM. Also, the “Hydrolysis … in % after 24 h” value in data set [2] (compounds of the invention) was less than 10%.
Taken in the same sequence, the figures for `CC(C)(CO)NC(=O)c1ccc(Nc2nc3ccc(-c4ccc(C(=O)NCc5ccc(F)cc5)cc4)cn3n2)c(OCC(F)(F)F)c1` [Example 02.18, 4-[(6-{4-[(4-fluorobenzyl)carbamoyl]phenyl}[1,2,4]triazolo[1,5-α]pyridin-2-yl)amino]-N-(1-hydroxy-2-methylpropan-2-yl)-3-(2,2,2-trifluoroethoxy)-benzamide] were not above 1 nM, not above 1 nM and less than 10%.
Consider `COc1cc(C(=O)NCC(F)(F)F)ccc1Nc1nc2ccc(-c3ccc(C(=O)NCc4ccc(F)cc4)cc3)cn2n1` [Example 02.17, 4-[(6-{4-[(4-fluorobenzyl)carbamoyl]phenyl}[1,2,4]triazolo[1,5-α]pyridin-2-yl)amino]-3-methoxy-N-(2,2,2-trifluoroethyl)benzamide], for which the IC50 in data set [1] was not above 1 nM; in data set [3], 4.6 nM. Moreover, the “Hydrolysis … in % after 24 h” value in data set [2] (compounds of the invention) is less than 10%.
Taken in the same sequence, the figures for `COc1cc(C(=O)NC(C)(C)CO)ccc1Nc1nc2ccc(-c3ccc(NC(=O)Cc4ccc(F)cc4)cc3)cn2n1` [Example 01.13, 4-{[6-(4-{[(4-fluorophenyl)acetyl]amino}phenyl)[1,2,4]triazolo[1,5-α]-pyridin-2-yl]amino}-N-(1-hydroxy-2-methylpropan-2-yl)-3-methoxy-benzamide] were not above 1 nM, not above 1 nM and less than 10%.
Taken in the same sequence, the figures for `CCN(CC)C(=O)c1ccc(Nc2nc3ccc(-c4ccc(NC(=O)Cc5ccc(F)cc5)cc4)cn3n2)c(OCC2CC2)c1` [Example 01.24, 3-(cyclopropylmethoxy)-N,N-diethyl-4-{[6-(4-{[(4-fluorophenyl)acetyl]-amino}phenyl)[1,2,4]triazolo[1,5-α]pyridin-2-yl]amino}benzamide] were not above 1 nM, 1.2 nM and less than 10%.
For the molecule `CC(C)(O)CNC(=O)c1ccc(Nc2nc3ccc(-c4ccc(C(=O)NCc5ccc(F)cc5)cc4)cn3n2)c(OCC(F)(F)F)c1` [Example 02.22, 4-[(6-{4-[(4-fluorobenzyl)carbamoyl]phenyl}[1,2,4]triazolo[1,5-α]pyridin-2-yl)amino]-N-(2-hydroxy-2-methylpropyl)-3-(2,2,2-trifluoroethoxy)benzamide], the IC50 in data set [1] and in data set [3] was not above 1 nM throughout. In addition, in data set [2] (compounds of the invention), the “Hydrolysis … in % after 24 h” value is less than 10%.
Turning to `CCOc1cc(C(=O)N(CC)CC)ccc1Nc1nc2ccc(-c3ccc(NC(=O)Cc4ccc(F)cc4)cc3)cn2n1` [Example 01.10, 3-ethoxy-N,N-diethyl-4-{[6-(4-{[(4-fluorophenyl)acetyl]amino}phenyl)-[1,2,4]triazolo[1,5-α]pyridin-2-yl]amino}benzamide], the IC50 in data set [1] and in data set [3] was not above 1 nM each time. In data set [2] (compounds of the invention), the “Hydrolysis … in % after 24 h” value is on record as less than 10%.
`CCOc1cc(C(=O)NC(C)(C)C)ccc1Nc1nc2ccc(-c3ccc(C(=O)NCc4ccc(F)cc4)cc3)cn2n1` [Example 02.21, N-tert-butyl-3-ethoxy-4-[(6-{4-[(4-fluorobenzyl)carbamoyl]phenyl}[1,2,4]-triazolo[1,5-α]pyridin-2-yl)amino]benzamide]: the values for the IC50 in data set [1] and in data set [3] were not above 1 nM and 2.4 nM, respectively. Further, the “Hydrolysis … in % after 24 h” value in data set [2] (compounds of the invention) was less than 10%.
For `CC(C)(O)CNC(=O)c1ccc(Nc2nc3ccc(-c4ccc(NC(=O)Cc5ccc(F)cc5)cc4)cn3n2)c(OCC(F)(F)F)c1` [Example 01.29, 4-{[6-(4-{[(4-fluorophenyl)acetyl]amino}phenyl)[1,2,4]triazolo[1,5-α]-pyridin-2-yl]amino}-N-(2-hydroxy-2-methylpropyl)-3-(2,2,2-trifluoro-ethoxy)benzamide] the same measures were not above 1 nM, not above 1 nM and less than 10%.
Turning to `Cc1ccc(C#N)c(Nc2nc3ccc(-c4ccc(NC(=O)Cc5ccccc5)cc4)cn3n2)c1` [Example 10, reference compound], half-maximal inhibition in data set [1] (IC50) required 2.1 nM. Moreover, the “Hydrolysis … in % after 24 h” value in data set [2] (setting [4]) is recorded as “≧70%”.
Taken in the same sequence, the figures for `N#Cc1ccccc1Nc1nc2ccc(-c3ccc(NC(=O)Cc4cccc(C(F)(F)F)c4)cc3)cn2n1` [Example 8, reference compound] were 1.4 nM and “≧70%”.
Taken in the same sequence, the figures for `N#Cc1ccccc1Nc1nc2ccc(-c3ccc(NC(=O)Cc4ccccc4F)cc3)cn2n1` [Example 3, reference compound] were not above 1 nM and “≧70%”.
For `N#Cc1ccccc1Nc1nc2ccc(-c3ccc(NC(=O)Cc4cccc(F)c4)cc3)cn2n1` [Example 7, reference compound] the same measures were 1.1 nM and “≧70%”.

The record behind these values is patent publication US20140120087A1, “TRIAZOLOPYRIDINES” (BAYER INTELLECTUAL PROPERTY GMBH, priority 2011, published 2014).
